{"source": "paper PMC6657668", "about": "“Porcine Beta-Defensin 2 Provides Protection Against Bacterial Infection by a Direct Bactericidal Activity and Alleviates Inflammation via Interference With the TLR4/NF-κB Pathway” (Frontiers in Immunology, 2019)", "key": {"[1]": {"system": "RAW 264.7 cells", "assay": "Cytokine levels of RAW 264.7 cells after treatment with LPS (ELISA), with or without pathway inhibitor", "assay_type": "cell-based, mouse", "conditions": "for IL-1β level / IL-6 level / TNF-α level: LPS 1 μg/ml", "description": "RAW 264.7 cells and RAW 264.7 cells stably expressing PBD-2 were pre-treated with S. Typhimurium at MOI = 10:1 for 1 h or with LPS (1 μg/ml) for 16 h, washed with PBS twice and incubated with RPMI 1640 that contained PBS or PBD-2 (10 μg/mL) for 16 h. RAW 264.7 cells stably expressing PBD-2 were maintained in RPMI 1640 that contained PBS for 16 h (n = 6 for each group). The expression levels of proinflammatory cytokines in the cell culture supernatant were determined through ELISA in accordance with the manufacturer's instruction.\nIn the inhibition assay, RAW 264.7 cells were pre-treated with 4 μg/ml NF-κB inhibitor (Celastrol, # ant-cls, InvivoGen®, San Diego, CA, USA) or 1 μg/ml TLR4 inhibitor (CLI-095, # tlrl-cli95, InvivoGen®, San Diego, CA, USA) for 1 h. Subsequently, RAW 264.7 cells were treated with LPS (1 μg/ml) alone or together with PBD-2 (10 μg/mL) for 16 h (n = 6 each group). RAW 264.7 cells treated with PBS were used as control. The levels of the cytokines in the supernatant of the cells were detected through ELISA."}, "[2]": {"conditions": "PBD-2 overexpressed in TG pigs; ref [16]; cited from earlier work", "text": "The antibiotic resistance of pathogenic bacteria has become a global threat ([30]). Defensins are natural peptides secreted by many species and implicated in resisting bacterial infection ([31]). PBD-2 is one of the defensins expressed in pigs. […] The invasion of S. Typhimurium can increase the expression of PBD-2 in porcine epithelial cells ([32]). […] PBD-2 also improves the growth perf ..."}, "[3]": {"conditions": "PBD-2 expressed by RAW 264.7–PBD-2 cells, n = 6"}, "[4]": {"conditions": "synthetic PBD-2 10 μg/mL with LPS 1 μg/ml, 16 h, after CLI-095 1 μg/ml, n = 6"}, "[5]": {"conditions": "synthetic PBD-2 10 μg/mL with LPS 1 μg/ml, 16 h, after Celastrol 4 μg/ml, n = 6"}, "[6]": {"conditions": "synthetic PBD-2 10 μg/mL, 16 h, n = 6"}}, "note": "Where a SMILES comes first, the peptide text is derived from it.", "data": [{"smiles": "CC[C@H](C)[C@H](NC(=O)[C@@H]1CSSC[C@@H]2NC(=O)[C@@H]3CCCN3C(=O)[C@H](CO)NC(=O)[C@H](Cc3ccccc3)NC(=O)[C@H](CC(N)=O)NC(=O)[C@@H]3CSSC[C@H](NC(=O)[C@H]([C@@H](C)O)NC(=O)CNC(=O)[C@H](CCC(=O)O)NC(=O)[C@H]([C@@H](C)CC)NC(=O)[C@H](CCCNC(=N)N)NC(=O)[C@H](CC(N)=O)NC(=O)[C@H](Cc4ccccc4)NC(=O)[C@H](CC(C)C)NC(=O)[C@@H]4CCCN4C2=O)C(=O)N[C@@H](Cc2ccc(O)cc2)C(=O)N[C@@H](CO)C(=O)NCC(=O)N[C@@H](CCCCN)C(=O)N[C@@H](C)C(=O)N[C@@H](CCCCN)C(=O)N[C@@H](CSSC[C@H](NC(=O)[C@@H](NC(=O)[C@H](Cc2ccc(O)cc2)NC(=O)[C@H](Cc2c[nH]cn2)NC(=O)[C@@H](N)CC(=O)O)[C@@H](C)CC)C(=O)N[C@@H](C)C(=O)N[C@@H](CCCCN)C(=O)N[C@@H](CCCCN)C(=O)NCC(=O)NCC(=O)N[C@@H]([C@@H](C)O)C(=O)N3)C(=O)N1)C(=O)N[C@@H](CCCNC(=N)N)C(=O)O", "note": "[PBD-2, Porcine beta-defensin 2] (HELM PEPTIDE1{D.H.Y.I.C.A.K.K.G.G.T.C.N.F.S.P.C.P.L.F.N.R.I.E.G.T.C.Y.S.G.K.A.K.C.C.I.R}$PEPTIDE1,PEPTIDE1,5:R3-34:R3|PEPTIDE1,PEPTIDE1,12:R3-27:R3|PEPTIDE1,PEPTIDE1,17:R3-35:R3$$$V2.0; N-terminus and C-terminus assumed)", "values": [{"measurement": "IL-1β level", "setting": "[1]; [3]", "result": "significantly reduced in RAW 264.7 cells supplemented with PBD-2 or in the RAW 264.7–PBD-2 cells (p < 0.05)"}, {"measurement": "IL-6 level", "setting": "[1]; [3]", "result": "significantly reduced in RAW 264.7 cells supplemented with PBD-2 or in the RAW 264.7–PBD-2 cells (p < 0.05)"}, {"measurement": "TNF-α level", "setting": "[1]; [3]", "result": "significantly reduced in RAW 264.7 cells supplemented with PBD-2 or in the RAW 264.7–PBD-2 cells (p < 0.05)"}, {"measurement": "cytokine secretion, PBD-2 itself", "setting": "[1]; PBD-2 without stimulus (Figures 5A–C)", "result": "did not affect cytokine secretion"}, {"measurement": "inflammatory responses of RAW 264.7 cells expressing PBD-2 versus supplemented with synthetic PBD-2", "setting": "[1]; S. Typhimurium or LPS (Figures 5A–C)", "result": "lower than those of the cells supplemented with synthetic PBD-2"}, {"measurement": "secretion of IL-1β in the presence of TLR4 inhibitor", "setting": "[1]; [4]", "result": "did not affect the secretion of these cytokines in the presence of TLR4 inhibitor (NS, p > 0.05)"}, {"measurement": "secretion of IL-6 in the presence of TLR4 inhibitor", "setting": "[1]; [4]", "result": "did not affect the secretion of these cytokines in the presence of TLR4 inhibitor (NS, p > 0.05)"}, {"measurement": "secretion of TNF-α in the presence of TLR4 inhibitor", "setting": "[1]; [4]", "result": "did not affect the secretion of these cytokines in the presence of TLR4 inhibitor (NS, p > 0.05)"}, {"measurement": "secretion of IL-1β in the presence of NF-κB inhibitor", "setting": "[1]; [5]", "result": "did not affect the secretion of these cytokines in the presence of NF-κB inhibitor (NS, p > 0.05)"}, {"measurement": "secretion of IL-6 in the presence of NF-κB inhibitor", "setting": "[1]; [5]", "result": "did not affect the secretion of these cytokines in the presence of NF-κB inhibitor (NS, p > 0.05)"}, {"measurement": "secretion of TNF-α in the presence of NF-κB inhibitor", "setting": "[1]; [5]", "result": "did not affect the secretion of these cytokines in the presence of NF-κB inhibitor (NS, p > 0.05)"}, {"measurement": "IL-1β level", "setting": "[1]; [6]", "result": "significantly reduced in RAW 264.7 cells supplemented with PBD-2 or in the RAW 264.7–PBD-2 cells (p < 0.05)"}, {"measurement": "IL-6 level", "setting": "[1]; [6]", "result": "significantly reduced in RAW 264.7 cells supplemented with PBD-2 or in the RAW 264.7–PBD-2 cells (p < 0.05)"}, {"measurement": "TNF-α level", "setting": "[1]; [6]", "result": "significantly reduced in RAW 264.7 cells supplemented with PBD-2 or in the RAW 264.7–PBD-2 cells (p < 0.05)"}, {"measurement": "bactericidal activity of the serum of TG pigs", "setting": "[2]", "result": "higher than that of WT pigs"}]}]}
